# Assay results reported in US8476248B2, “Process for the preparation of a water-soluble complex having resveratrol compounds; products comprising said complex; and uses thereof” (Uniao Brasileira de Educacao e Assistencia—Mantenedora da …, priority 2007, dated 2013).
# Assays:
# [1] = background statement; cited from earlier work
# [2] = physchem; assay type: physicochemical
# Procedure: Ten mg, 100 mg, 500 mg, 1000 mg and 2000 mg of β-CD/Res complex were put in 100 mL volumetric flasks and water was added until completing their volume. The solutions stayed at ultrasound for 60 minutes. Then samples were centrifuged and filtered in a 0.45 μm pore diameter cellulose acetate membrane. Twenty μL portions of the samples were diluted 2000 times and their absorbances were measured by a UV-VIS spectrophotometer (FIG. 2). It was noticed that system saturation happens from 1000 mg of β-CD/Res (FIG. 3). The concentration of trans-resveratrol in 1000 mg and 2000 mg β-CD/Res sample concentrations was determined by High-Performance Liquid Chromatography (HPLC). For quantification, an external calibration curve was used, with trans-resveratrol concentrations ranging from 0.10 a 200.0 mg.L^−1. HPLC was carried out in isocratic elution (flow of 1.0 mL min^−1), with an aqueous solution of 25% acetonitrile, pH 3.0, adjusted with H3PO4. The chromatograph was equipped with UV-VIS detector and a C18 column, 5 μm 250×4.6 mm. Sample portions were diluted 1000 times with eluent, and 20 μL were injected and detected in 306 nm. The concentrations of trans-resveratrol of the 1000 mg sample of β-CD/Res complex were 3010±62 mg.L^−1 and of the 2000 mg sample of βCD/Res complex were 2960.5±53 mg.L^−1. […] All analyses were carried out in quintuplicate.
structure (smiles),measurement,setting,value
"Oc1ccc(C=Cc2cc(O)cc(O)c2)cc1 [trans-resveratrol, 3,5,4′-trihydroxystilbene]",water solubility,[1],less than 0.03 g/L
same,Solubility,[2]; 60 min,27.5 µg/mL
same,solubility at 60 min,"[2]; water, thermodynamic from solid",27.5 ± 0.45 µg/mL
